Reference: patent US20250195561A1, “A CATIONIC DENDRIMER FOR IMPROVING ANTIBIOTIC EFFICACY OF AN ANTIBIOTIC” (GAMA HEALTHCARE LTD, priority 2022, published 2025)
Values after ≈ are worked out from the molar mass of the structure shown. Read-outs that look alike come from different tables or passages of the source.

Experiments:
Assay type in all cases: cell-based
[1] = system: Pseudomonas aeruginosa strain PA01; test: Antibiotic disc diffusion assay (zone of inhibition); settings: antibiotic disc on Iso-Sensitest agar, 37° C., 20 hours, ±Stdev, n = 2
Experimental: (§1) The antibiotic disc diffusion assay was performed as described previously to determine the antibiotic susceptibility of the two strains. Briefly, a standardised suspension of the two Pseudomonas strains was used to inoculate Iso-Sensitest agar (ISA) plates to yield semi-confluent growth of each organism. Antibiotic discs containing Gentamicin and Imipenem were applied to the inoculated plates, then incubated at 37° C. for 20 hours. Zones of inhibition were measured to the nearest millimetre.

[2] = system: Pseudomonas aeruginosa strain PS3; test: as above; settings: antibiotic disc on Iso-Sensitest agar, 37° C., 20 hours, ±Stdev, n = 2
Experimental: as §1

[3] = system: Pseudomonas aeruginosa strain PA01; test: 96-well broth dilution test (MIC) in presence and absence of dendrimer; settings: for MIC: MHB, 37° C., 24 hours; for Reduction (%) in MIC: with dendrimer (0.1%) versus antibiotic alone
Experimental: (§2) Briefly, a standard suspension of the two Pseudomonas strains was prepared in Mueller Hinton Broth (MHB), then added to varying concentrations of antibiotic in a 96-well plate. Tests were performed either in the presence or absence of dendrimer (final concentration 0.1%). 96-well plates were incubated at 37° C. for 24 hours, with optical density (620 nm) of cultures monitored over this period using a Multiskan EX plate reader (Thermo Labsystems).

[4] = system: Pseudomonas aeruginosa strain PS3; test: as above; settings: for MIC: MHB, 37° C., 24 hours; for Reduction (%) in MIC: with dendrimer (0.1%) versus antibiotic alone
Experimental: as §2

[5] = presence of dendrimer (final concentration 0.1%)

Compound | Zone of inhibition [1] | Zone of inhibition [2] | MIC ([3]; Pseudomonas aeruginosa, PA01, 24 h, absence of dendrimer, read-out: MIC) [µg/mL] | MIC ([3]; Pseudomonas aeruginosa, PA01, 24 h, presence of dendrimer (final concentration 0.1%), read-out: MIC) [µg/mL] | Reduction (%) in MIC [3] [%] | MIC ([4]; Pseudomonas aeruginosa, PS3, 24 h, absence of dendrimer, read-out: MIC) [µg/mL] | MIC ([4]; Pseudomonas aeruginosa, PS3, 24 h, presence of dendrimer (final concentration 0.1%), read-out: MIC) [µg/mL] | Reduction (%) in MIC [4] [%] | MIC ([3]; absence of dendrimer) [µg/mL] | MIC [3, 5] [µg/mL] | MIC ([4]; absence of dendrimer) [µg/mL] | MIC [4, 5] [µg/mL]
C[C@@H](O)[C@H]1C(=O)N2C(C(=O)O)=C(SCCN=CN)C[C@H]12 [Imipenem] | 12 (±2.8) Mm | 35 (±0.0) Mm | 28.3 (≈ 94.6 µM) | < 0.011 | > 99.9 | 51.1 (≈ 171 µM) | < 0.011 | > 99.9 | – | – | – | –
Gentamicin | 38 (±1.4) Mm | 46 (±0.7) Mm | – | – | 71 | – | – | 78 | 4.64 | 1.34 | 1.45 | 0.32
